Conditions: hairless rats, pad saturated with 4% lidocaine, 2 cm^2 delivery pad, 0.3 mA for 24 hours, active iontophoretic probe; for the entire 24-hour period
Excerpt: An incision was made in hairless rats, which was then sutured closed.

In the case of CCN(CC)CC(=O)Nc1c(C)cccc1C [lidocaine], the “Concentration of lidocaine generated in the incision” value is reported as “sufficient to cause anesthesia”.
